How the values were obtained:
Format in all cases: in vivo
[1] = system: ducksalad (Heteranthera limosa); assay: Test B flooded paddy test; settings: for Plant response rating, Ducksalad: Flood (flooded paddy test), 13 to 15 days
Outline: (§1)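 2-leaf seedlings; pots flooded 3 cm over soil at treatment; cpd dosed into floodwater, depth kept constant. Greenhouse 13–15 d. Visual rating vs untreated controls, 0 = no effect, 100 = complete control.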

[2] = system: barnyardgrass (Echinochloa crus-galli); assay: Test B flooded paddy test; settings: for Plant response rating, Barnyardgrass: Flood (flooded paddy test), 13 to 15 days
Outline: as §1

[3] = system: umbrella sedge (Cyperus difformis); assay: Test B flooded paddy test; settings: for Plant response rating, Sedge, Umbrella: Flood (flooded paddy test), 13 to 15 days
Outline: as §1

rice (Oryza sativa) = assay: Test B flooded paddy test; settings: for Plant response rating, Rice: Flood (flooded paddy test), 13 to 15 days
Outline: as §1

[4] = system: canarygrass (Phalaris minor); assay: Test B postemergence plant response
Outline: (§2)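 Plants grown in peat/vermiculite medium were sprayed postemergence at 2–18 cm height (1- to 4-leaf stage). After 13–15 days in the greenhouse, response was rated visually against untreated controls on a 0–100 scale (0 no effect, 100 complete control).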

[5] = system: winter barley (Hordeum vulgare); assay: Test B postemergence plant response
Outline: as §2

[6] = system: windgrass (Apera spica-venti); assay: Test B postemergence plant response
Outline: as §2

[7] = system: chickweed (Stellaria media); assay: Test B postemergence plant response
Outline: as §2

[8] = system: galium (catchweed bedstraw, Galium aparine); assay: Test B pre-/postemergence plant response; settings: Preemergence
Outline: (§3)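 Test compounds, formulated in a non-phytotoxic solvent mixture with surfactant, are applied to the soil surface (loam and sand blend) right after seeding, or sprayed over plants at the 1- to 4-leaf stage grown in peat moss/vermiculite medium. After 13 to 15 days under glasshouse conditions, each species is scored visually from 0 (no effect) to 100 (complete control) against controls.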

[9] = system: pigweed (Amaranthus retroflexus); assay: Test B pre-/postemergence plant response
Outline: as §3

[10] = system: Russian thistle (Salsola kali); assay: Test B pre-/postemergence plant response; settings: Preemergence, 125 g ai/ha; scale 0 to 100, 0 no effect, 100 complete control
Outline: as §3

wild oat (Avena fatua) = assay: Test B pre-/postemergence plant response
Outline: as §3

[11] = system: sunflower (common oilseed sunflower, Helianthus annuus); assay: Test B pre-/postemergence plant response; settings: Preemergence
Outline: as §3

[12] = system: nightshade (eastern black nightshade, Solanum ptycanthum); assay: Test B pre-/postemergence plant response; settings: Preemergence
Outline: as §3

[13] = 250 g ai/ha, flooded paddy test, visual rating on 0 to 100 scale (0 no effect, 100 complete control) after 13 to 15 days
[14] = 62 g ai/ha, scale of 0 to 100 where 0 is no effect and 100 is complete control
[15] = 125 g ai/ha, scale 0 to 100, 0 is no effect, 100 is complete control
[16] = Flood, 31 g ai/ha, scale 0 to 100 (0 no effect, 100 complete control)
[17] = 31 g ai/ha, postemergence, scale 0 to 100, 0 is no effect, 100 is complete control
[18] = 62 g ai/ha, postemergence, 0 is no effect, 100 is complete control, 13 to 15 days
[19] = Postemergence, 125 g ai/ha, visual rating after 13 to 15 days, scale 0 (no effect) to 100 (complete control)
[20] = Postemergence, 250 g ai/ha, scale 0 to 100 (0 no effect, 100 complete control)
[21] = 31 g ai/ha, scale 0 to 100 (0 no effect, 100 complete control)
[22] = 62 g ai/ha, scale 0 to 100, 0 no effect, 100 complete control
[23] = 125 g ai/ha, scale 0 to 100, 0 no effect, 100 complete control
[24] = Preemergence, 31 g ai/ha, scale 0 to 100 (0 no effect, 100 complete control)
[25] = Preemergence, 62 g ai/ha, scale 0 to 100, 0 no effect, 100 complete control
[26] = Preemergence, 125 g ai/ha, scale 0 to 100, 0 no effect, 100 complete control

## CC(C)Cc1ncc(C(=O)C2=C(O)CCCC2=O)c(=O)n1-c1ccccc1 [Compound 68]
[1]; [13]
  Plant response rating, Flood, Ducksalad: 40
[1]; [14]
  Plant response rating, Ducksalad: 0
[1]; [15]
  Plant response rating, Ducksalad: 30
[1]; [16]
  Ducksalad plant response rating: 0
[2]; [13]
  Plant response rating, Flood, Barnyardgrass: 20
[2]; [14]
  Plant response rating, Barnyardgrass: 0
[2]; [15]
  Plant response rating, Barnyardgrass: 0
[2]; [16]
  Barnyardgrass plant response rating: 0
[3]; [13]
  Plant response rating, Flood, Sedge, Umbrella: 0
[3]; [14]
  Plant response rating, Sedge, Umbrella: 0
[3]; [15]
  Plant response rating, Sedge, Umbrella: 0
[3]; [16]
  Sedge, Umbrella plant response rating: 0
Rice (Oryza sativa); [13]
  Plant response rating, Flood, Rice: 30
Rice (Oryza sativa); [14]
  Plant response rating, Rice: 15
Rice (Oryza sativa); [15]
  Plant response rating, Rice: 20
Rice (Oryza sativa); [16]
  Rice plant response rating: 0
[4]; [17]
  Plant response rating, Canarygrass: 0
[4]; [18]
  Canarygrass plant response rating (0 to 100 scale): 0
[4]; [19]
  Plant response rating, Canarygrass: 35
[4]; [20]
  Plant response rating, Canarygrass: 35
[5]; [17]
  Plant response rating, Barley: 0
[5]; [18]
  Barley plant response rating (0 to 100 scale): 0
[5]; [19]
  Plant response rating, Barley: 25
[5]; [20]
  Plant response rating, Barley: 30
[6]; [17]
  Plant response rating, Windgrass: 40
[6]; [18]
  Windgrass plant response rating (0 to 100 scale): 50
[6]; [19]
  Plant response rating, Windgrass: 65
[6]; [20]
  Plant response rating, Windgrass: 85
[7]; [17]
  Plant response rating, Chickweed: 85
[7]; [18]
  Chickweed plant response rating (0 to 100 scale): 90
[7]; [19]
  Plant response rating, Chickweed: 98
[7]; [20]
  Plant response rating, Chickweed: 100
[8]; 250 g ai/ha, 0 to 100 scale
  Plant response rating, Galium: 85
[8]; [21]
  Plant response rating, Galium: 0
[8]; [22]
  Plant response rating, Galium: 70
[8]; [23]
  Plant response rating, Galium: 70
[9]; [17]
  Plant response rating, Pigweed: 85
[9]; [18]
  Pigweed plant response rating (0 to 100 scale): 95
[9]; [19]
  Plant response rating, Pigweed: 100
[9]; [20]
  Plant response rating, Pigweed: 100
[9]; [24]
  Plant response rating, Pigweed: 95
[9]; [25]
  Plant response rating, Pigweed: 98
[9]; [26]
  Plant response rating, Pigweed: 100
[10]
  Plant response rating, Russian Thistle: 80
Wild oat (Avena fatua); [17]
  Plant response rating, Oat, Wild: 5
Wild oat (Avena fatua); [18]
  Oat, Wild plant response rating (0 to 100 scale): 20
Wild oat (Avena fatua); [19]
  Plant response rating, Oat, Wild: 50
Wild oat (Avena fatua); [20]
  Plant response rating, Oat, Wild: 70
Wild oat (Avena fatua); [24]
  Plant response rating, Oat, Wild: 0
Wild oat (Avena fatua); [25]
  Plant response rating, Oat, Wild: 0
Wild oat (Avena fatua); [26]
  Plant response rating, Oat, Wild: 0
[11]; [21]
  Plant response rating, Sunflower: 0
[11]; [22]
  Plant response rating, Sunflower: 60
[11]; [23]
  Plant response rating, Sunflower: 75
[12]; [21]
  Plant response rating, Nightshade: 98
[12]; [22]
  Plant response rating, Nightshade: 98
[12]; [23]
  Plant response rating, Nightshade: 100

From patent US8952024B2, “Herbicidal pyrimidone derivatives” (E I du Pont de Nemours and Company, priority 2009, dated 2015)
